Experiment: xn = mol fraction of the nth substance listed
Conditions: 101.33 kPa, Liquid, Vibrating tube method

CCCCCCN [1-hexanamine] + CCCCO
mass density [kg/m3]
Conditions | 288.15 K | 293.15 K | 298.15 K | 303.15 K | 308.15 K | 313.15 K | 318.15 K | 323.15 K
x2 = 0 | 768.637 | 764.385 | 760.128 | 755.856 | 751.573 | 747.276 | 742.962 | 738.636
x2 = 0.0503 | 771.284 | 767.06 | 762.826 | 758.576 | 754.314 | 750.035 | 745.737 | 741.427
x2 = 0.1108 | 774.579 | 770.381 | 766.172 | 761.947 | 757.705 | 753.444 | 749.165 | 744.868
x2 = 0.1615 | 777.172 | 772.994 | 768.799 | 764.593 | 760.366 | 756.118 | 751.85 | 747.565
x2 = 0.2004 | 779.327 | 775.161 | 770.98 | 766.783 | 762.567 | 758.331 | 754.072 | 749.795
x2 = 0.2455 | 781.707 | 777.556 | 773.386 | 769.201 | 764.996 | 760.77 | 756.52 | 752.247
x2 = 0.3004 | 784.53 | 780.391 | 776.235 | 772.062 | 767.867 | 763.651 | 759.41 | 755.147
x2 = 0.4 | 789.735 | 785.619 | 781.483 | 777.33 | 773.155 | 768.956 | 764.732 | 760.481
x2 = 0.4802 | 793.847 | 789.75 | 785.637 | 781.501 | 777.345 | 773.162 | 768.953 | 764.717
x2 = 0.6294 | 800.788 | 796.75 | 792.692 | 788.612 | 784.508 | 780.377 | 776.215 | 772.02
x2 = 0.6999 | 803.655 | 799.656 | 795.637 | 791.594 | 787.526 | 783.429 | 779.299 | 775.138
x2 = 0.75 | 805.487 | 801.517 | 797.53 | 793.517 | 789.481 | 785.41 | 781.306 | 777.172
x2 = 0.7997 | 807.332 | 803.397 | 799.441 | 795.46 | 791.45 | 787.411 | 783.336 | 779.228
x2 = 0.8495 | 808.927 | 805.024 | 801.1 | 797.154 | 793.178 | 789.169 | 785.123 | 781.043
x2 = 0.8994 | 810.567 | 806.697 | 802.808 | 798.893 | 794.95 | 790.973 | 786.956 | 782.9
x2 = 0.9504 | 812.092 | 808.261 | 804.406 | 800.528 | 796.618 | 792.674 | 788.687 | 784.663

CCCCO [butan-1-ol] + CCCCCCN
x1 = 1
Conditions | mass density [kg/m3]
288.15 K | 813.373
293.15 K | 809.573
298.15 K | 805.762
303.15 K | 801.923
308.15 K | 798.053
313.15 K | 794.147
318.15 K | 790.231
323.15 K | 786.238

CCCCCCC [heptane] + CCCCCCN
x2 = 0
Conditions | mass density [kg/m3]
288.15 K | 687.954
293.15 K | 683.733
298.15 K | 679.494
303.15 K | 675.229
308.15 K | 670.941
313.15 K | 666.621
318.15 K | 662.273
323.15 K | 657.896

Reference: the NIST ThermoML archive (doi:10.1016/j.fluid.2010.07.011)
